A short description of series [1]: Equilibrium solubility in pH 7.0 phosphate buffer by LC/MS method. The series is classed as physicochemical.
Series [2] has as its target T1, Cathepsin S (Homo sapiens, UniProt P25774). The series can be described thus: Inhibition of cathepsin S in human JY cells assessed as invariant chain-li degradation. The series is classed as cell-based.
Series [3] addresses T1, Cathepsin S. Kind of series: Inhibition of human cathepsin S.
Series [4] concerns the target Voltage-gated inwardly rectifying potassium channel KCNH2 (Homo sapiens, UniProt Q12809). Kind of series: Inhibition of human ERG by patch clamp assay. Background: The patch-clamp technique gives a direct electrical read-out from membranes.

≈ marks a conversion by molar mass, not a printed value.

What is called solubility (thermodynamic) is the concentration in solution at equilibrium with solid. As usually defined, the IC50 is the concentration at which inhibition is half-maximal.

T1 sequence (P25774 whole entry): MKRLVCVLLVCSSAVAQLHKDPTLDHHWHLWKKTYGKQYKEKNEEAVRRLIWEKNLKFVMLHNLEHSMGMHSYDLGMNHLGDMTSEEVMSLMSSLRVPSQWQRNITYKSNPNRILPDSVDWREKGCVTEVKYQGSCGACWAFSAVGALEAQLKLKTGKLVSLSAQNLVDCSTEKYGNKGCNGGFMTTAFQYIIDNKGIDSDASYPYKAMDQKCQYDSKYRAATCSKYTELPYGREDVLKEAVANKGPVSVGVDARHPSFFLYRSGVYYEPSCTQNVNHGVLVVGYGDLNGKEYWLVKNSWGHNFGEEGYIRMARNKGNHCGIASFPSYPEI
Chain of Voltage-gated inwardly rectifying potassium channel KCNH2 (Q12809 whole entry): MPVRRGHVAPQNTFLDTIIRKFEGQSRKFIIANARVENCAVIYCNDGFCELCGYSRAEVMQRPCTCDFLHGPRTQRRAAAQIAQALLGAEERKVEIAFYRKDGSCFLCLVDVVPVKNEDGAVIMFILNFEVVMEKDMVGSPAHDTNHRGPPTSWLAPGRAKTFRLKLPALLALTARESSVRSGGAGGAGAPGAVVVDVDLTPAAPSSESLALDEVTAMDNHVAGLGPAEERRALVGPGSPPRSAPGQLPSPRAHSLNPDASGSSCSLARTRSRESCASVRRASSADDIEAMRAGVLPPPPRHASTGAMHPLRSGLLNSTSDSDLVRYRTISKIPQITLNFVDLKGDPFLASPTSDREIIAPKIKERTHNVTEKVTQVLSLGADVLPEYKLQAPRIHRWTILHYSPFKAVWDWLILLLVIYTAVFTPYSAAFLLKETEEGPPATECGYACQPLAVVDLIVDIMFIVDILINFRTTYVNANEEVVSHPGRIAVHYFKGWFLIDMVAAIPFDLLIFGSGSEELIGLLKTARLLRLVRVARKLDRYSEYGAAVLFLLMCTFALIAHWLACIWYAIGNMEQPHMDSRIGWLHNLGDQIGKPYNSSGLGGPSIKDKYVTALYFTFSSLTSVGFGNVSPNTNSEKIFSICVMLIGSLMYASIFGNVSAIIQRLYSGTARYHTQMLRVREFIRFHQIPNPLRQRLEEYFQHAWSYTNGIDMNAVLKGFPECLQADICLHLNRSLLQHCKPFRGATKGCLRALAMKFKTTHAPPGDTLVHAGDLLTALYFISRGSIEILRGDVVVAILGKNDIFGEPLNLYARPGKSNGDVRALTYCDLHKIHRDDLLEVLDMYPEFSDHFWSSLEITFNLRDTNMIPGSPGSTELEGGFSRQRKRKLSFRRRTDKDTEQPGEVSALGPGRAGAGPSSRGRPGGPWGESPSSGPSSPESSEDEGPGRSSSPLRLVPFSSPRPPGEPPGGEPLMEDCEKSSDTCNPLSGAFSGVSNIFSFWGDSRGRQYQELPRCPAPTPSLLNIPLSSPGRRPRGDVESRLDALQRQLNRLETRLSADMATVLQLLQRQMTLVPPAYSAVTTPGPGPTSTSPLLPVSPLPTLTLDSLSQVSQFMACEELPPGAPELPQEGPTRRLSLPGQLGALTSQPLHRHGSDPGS

`NC(=O)C(=O)N1CCc2c(c(-c3ccc(C(F)(F)F)c(SCCN4CCC(F)CC4)c3)nn2C[C@@H](O)CN2CCCCC2)C1` showed a solubility (thermodynamic) in series [1] below 1 µM.
As to `NC(=O)N1CCc2c(c(-c3ccc(Cl)c(C#Cc4ccc(Cl)c(C(=O)N5CCNCC5)c4)c3)nn2CCCN2CCSCC2)C1`, the IC50 on Cathepsin S [2] came out at 630 nM. The same compound showed a solubility (thermodynamic) in series [1] of 66 µM (≈ 44 µg/mL).
In the case of `NC(=O)C(=O)N1CCc2c(c(-c3ccc(Cl)c(C#Cc4ccc(CNCc5ccc(Cl)cc5)cc4)c3)nn2CCCN2CCN(c3ccccc3)CC2)C1`, the IC50 on Cathepsin S [2] turned out to be 560 nM; at Cathepsin S [3] it was 10 nM. Besides, in series [1], the thermodynamic solubility is below 1 µM.
As to `NC(=O)N1CCc2c(c(-c3ccc(Cl)c(C#Cc4ccc(CNCc5ccc(Cl)cc5)cc4)c3)nn2CCCN2CCSCC2)C1`, the IC50 came out at 870 nM at Cathepsin S [2] and 70 nM on Cathepsin S [3]. Also, the “inhibition (INH)” value in series [4] was “Not Active”. Moreover, the thermodynamic solubility in series [1] was below 1 µM.
As for `NC(=O)C(=O)N1CCc2c(c(-c3ccc(Cl)c(C#Cc4ccc(CNCc5ccc(Cl)cc5)cc4)c3)nn2CCCN2CCSCC2)C1`, the IC50 at Cathepsin S [2] amounted to 270 nM. The compound also had a thermodynamic solubility in series [1] below 1 µM.
`C[C@@H]1COCCN1CCCn1nc(-c2ccc(Cl)c(C#Cc3ccc(CNCc4ccc(Cl)cc4)cc3)c2)c2c1CCN(C(N)=O)C2`: the IC50 worked out at 1540 nM on Cathepsin S [2] and 110 nM at Cathepsin S [3]. This compound came in with a solubility (thermodynamic) in series [1] of 3 µM (≈ 2.02 µg/mL).
Regarding `C[C@@H]1COCCN1CCCn1nc(-c2ccc(Cl)c(C#Cc3ccc(CNCc4ccc(Cl)cc4)cc3)c2)c2c1CCN(C(=O)C(N)=O)C2`, the results for the IC50 at Cathepsin S [2] and at Cathepsin S [3] were 960 nM and 50 nM, respectively. Also, in series [4], the “inhibition (INH)” value is on record as “Not Active”. In series [1], this compound displayed a thermodynamic solubility below 1 µM.
Take `NC(=O)N1CCc2c(c(-c3ccc(Cl)c(C#Cc4ccc(C(=O)NCc5ccc(Cl)cc5)cc4)c3)nn2CCCN2CCSCC2)C1`: the IC50 on Cathepsin S [2] was above 10000 nM.
Still for that read-out and setting: in the case of `NC(=O)N1CCc2c(c(-c3ccc(Cl)c(C#Cc4ccc(C(=O)NCc5cccnc5)cc4)c3)nn2CCCN2CCSCC2)C1` it was above 10000 nM.
As to `NC(=O)N1CCc2c(c(-c3ccc(Cl)c(C#Cc4ccc(C(=O)NC[C@@H]5CCCN5)cc4)c3)nn2CCCN2CCSCC2)C1`, the IC50 on Cathepsin S [2] was above 10000 nM. Besides, the solubility (thermodynamic) in series [1] is 81 µM (≈ 52.3 µg/mL).
Consider `NC(=O)N1CCc2c(c(-c3ccc(Cl)c(C#Cc4ccc(COCc5cccnc5)cc4)c3)nn2CCCN2CCSCC2)C1`, for which the IC50 on Cathepsin S [2] is above 10000 nM.
`NC(=O)N1CCc2c(c(-c3ccc(Cl)c(C#Cc4ccc(Cl)c(C(=O)NC[C@@H]5CCCN5)c4)c3)nn2CCCN2CCSCC2)C1`: at Cathepsin S [2], the IC50 was found to be 620 nM. Moreover, the thermodynamic solubility in series [1] amounted to 175 µM (≈ 119 µg/mL).
The corresponding values for `NC(=O)N1CCc2c(c(-c3ccc(Cl)c(C#Cc4ccc(Cl)c(C(=O)NCCN5CCOCC5)c4)c3)nn2CCCN2CCSCC2)C1` are 610 nM and 9 µM (≈ 6.4 µg/mL).
As for `CN(C)S(=O)(=O)N1CCc2c(c(-c3ccc(Cl)c(C#Cc4ccc(CNCc5ccc(Cl)cc5)cc4)c3)nn2CCCN2CCOCC2)C1`, at Cathepsin S [2], the IC50 was determined as 5000 nM.
As to `CC(=O)NCC(=O)N1CCc2c(c(-c3ccc(Cl)c(C#Cc4ccc(CNCc5ccc(Cl)cc5)cc4)c3)nn2CCCN2CCOCC2)C1`, the IC50 on Cathepsin S [2] worked out at 1100 nM.
Consider `NC(=O)C(=O)N1CCc2c(c(-c3ccc(Cl)c(C#Cc4ccc(CNCc5ccc(Cl)cc5)cc4)c3)nn2CCCN2CCOCC2)C1`, for which the IC50 on Cathepsin S [2] amounted to 510 nM; against Cathepsin S [3], 60 nM. In series [1], this compound gave a thermodynamic solubility below 1 µM.
Turning to `CN(C)C(=O)C(=O)N1CCc2c(c(-c3ccc(Cl)c(C#Cc4ccc(CNCc5ccc(Cl)cc5)cc4)c3)nn2CCCN2CCOCC2)C1`, the IC50 on Cathepsin S [2] was determined as 1750 nM. Also, the thermodynamic solubility in series [1] is below 1 µM.
Turning to `NC(=O)N1CCc2c(c(-c3ccc(Cl)c(C#Cc4ccc(CNCc5ccc(Cl)cc5)cc4)c3)nn2CCCN2CCCCC2)C1`, the half-inhibitory concentration (IC50) at Cathepsin S [2] is 200 nM.
Still for that read-out and setting: in the case of `NC(=O)C(=O)N1CCc2c(c(-c3ccc(Cl)c(C#Cc4ccc(CNCc5ccc(Cl)cc5)cc4)c3)nn2CCCN2CCCCC2)C1` it was 300 nM.
`NC(=O)N1CCc2c(c(-c3ccc(Cl)c(C#Cc4ccc(CNCc5ccc(Cl)cc5)cc4)c3)nn2CCCN2CCC(C(F)(F)F)CC2)C1`: the results for the IC50 on Cathepsin S [2] and against Cathepsin S [3] were 690 nM and 60 nM, respectively. Further, in series [1], the thermodynamic solubility is below 1 µM.
For `NC(=O)C(=O)N1CCc2c(c(-c3ccc(Cl)c(C#Cc4ccc(CNCc5ccc(Cl)cc5)cc4)c3)nn2CCCN2CCC(C(F)(F)F)CC2)C1`, the IC50 at Cathepsin S [2] came to 1770 nM. The solubility (thermodynamic) in series [1] is below 1 µM.
With `NC(=O)N1CCc2c(c(-c3ccc(Cl)c(C#Cc4ccc(CNCc5ccc(Cl)cc5)cc4)c3)nn2CCCN2CCN(c3ccccc3)CC2)C1`, on Cathepsin S [2], the IC50 is 710 nM.
Still for that read-out and setting: in the case of `NC(=O)N1CCc2c(c(-c3ccc(Cl)c(C#Cc4ccc(CNCc5ccc(Cl)cc5)cc4)c3)nn2CCCN2CCOCC2)C1` it was 440 nM.
Regarding `CS(=O)(=O)N1CCc2c(c(-c3ccc(Cl)c(C#Cc4ccc(CNCc5ccc(Cl)cc5)cc4)c3)nn2CCCN2CCOCC2)C1`, the solubility (thermodynamic) in series [1] is below 1 µM.
As for `NC(=O)N1CCc2c(c(-c3ccc(Cl)c(C#Cc4ccc(COCC5CNCCO5)cc4)c3)nn2CCCN2CCSCC2)C1` (racemic), the IC50 on Cathepsin S [2] was above 10000 nM. The same compound showed a solubility (thermodynamic) in series [1] of 46 µM (≈ 29.9 µg/mL).
With `NC(=O)N1CCc2c(c(-c3ccc(Cl)c(C#Cc4ccc(Cl)c(C(=O)NCC5CCCNC5)c4)c3)nn2CCCN2CCSCC2)C1` (racemic), the concentration for half-maximal inhibition (IC50) at Cathepsin S [2] turned out to be 510 nM.

Values taken from ChEMBL document CHEMBL2311389, “Pyrazole-based arylalkyne cathepsin S inhibitors. Part III: modification of P4 region” (Bioorg Med Chem Lett, 2013).
